Source: patent US3952108A, “Scopolamine derivatives for treating ulcers and spasms” (Istituto de Angeli S.p.A., priority 1972, dated 1976)

Experiments:
[1] = test system: rabbit choledochoduodenal junction; assay: Spasmolytic activity "in vivo" on rabbit choledochoduodenal junction stimulated by neostigmine; conditions: 10 mcg/Kg i.v.; neostigmine 60 mcg/Kg i.v.; activity of scopolamine bromobutylate equal to 1
Description: Spasmolytic activity "in vivo" on rabbit choledochoduodenal junction stimulated by neostigmine (60 mcg/Kg i.v.), after i.v. administration of the compound under examination, according to Luoma P., Acta Pharmacol. e Toxicol., 29, suppl. 1, 5-55 (1971).
(§1) The above experiments have been carried out in comparison with scopolamine bromobutylate as a reference. The results are shown in the following table and are expressed on the basis of the activity of scopolamine bromobutylate being equal to 1.

[2] = Overall evaluation of the spasmolytic and anti-ulcer tests; conditions: versus scopolamine bromobutylate
Description: The properties of the new compounds may be illustrated by the results of the following experiments.
as §1

Shay ulcer in rats = assay: Action on Shay ulcer in rats by intraduodenal route; format: in vivo, rat; conditions: 100 mg/Kg i.d., activity of scopolamine bromobutylate equal to 1
Description: Action on Shay ulcer in rats by intraduodenal route according to Shay H., Komarov S. A., Fels S. S., Meranze D., Gruenstein M. and Siplet H., Gastroenterology, 5, 43-61 (1945).
as §1

[3] = test system: gastric secretion in rats; assay: Action on gastric secretion in rats after intraduodenal administration; format: in vivo, rat; conditions: 40 mg/Kg i.d., activity of scopolamine bromobutylate equal to 1
Description: Action on gastric secretion in rats after intraduodenal administration according to Birnbaum G., Medicina Psicosomatica, 13, 1-4 (1968).
as §1

Compound | % increase of flux, relative to scopolamine bromobutylate = 1 [1] | Activity compared with the reference compound, taking into account the relevant toxicities [2] | % of animals protected from ulcer, relative to scopolamine bromobutylate = 1 (Shay ulcer in rats) | inhibition % of the gastric juice, relative to scopolamine bromobutylate = 1 [3]
C[N+]1(CC2CC2)[C@@H]2C[C@H](OC(=O)[C@H](CO)c3ccccc3)C[C@H]1[C@@H]1O[C@@H]12 (stereo partly drawn) [DA-3177, scopolamine-N-(cyclopropyl-methyl)-bromide] | 0.9 | higher activities than the reference compound | 1.5 | 1
CCCC[N+]1(C)[C@@H]2C[C@@H](OC(=O)[C@H](CO)c3ccccc3)C[C@H]1[C@@H]1O[C@@H]12 (stereo partly drawn) [Scopolamine bromobutylate, scopolamine bromobutylate, reference compound] | 1 |  | 1 | 1
C[N+]1(CC2CCC2)[C@@H]2C[C@H](OC(=O)[C@H](CO)c3ccccc3)C[C@H]1[C@@H]1O[C@@H]12 (stereo partly drawn) [DA-3237, Scopolamine-N-(cyclobutyl-methyl)-bromide] | 1.2 | higher activities than the reference compound | 2 | 1.2
C[N+]1(CC2CO2)[C@@H]2C[C@H](OC(=O)[C@H](CO)c3ccccc3)C[C@H]1[C@@H]1O[C@@H]12 (stereo partly drawn) [DA-3245, scopolamine-N-(2,3-epoxypropyl)-bromide] | 0.4 |  | 1.5 | 1.4
CC1CC1C[N+]1(C)[C@@H]2C[C@H](OC(=O)[C@H](CO)c3ccccc3)C[C@H]1[C@@H]1O[C@@H]12 (stereo partly drawn) [DA-3235, Scopolamine-N-(2-methyl-cyclopropyl-methyl)-bromide] | 0.8 | higher activities than the reference compound | 2 | 0.8
C[N+]1(CCC2CC2)[C@@H]2C[C@H](OC(=O)[C@H](CO)c3ccccc3)C[C@H]1[C@@H]1O[C@@H]12 (stereo partly drawn) [DA-3236, scopolamine-N-(cyclopropyl-ethyl)-bromide] | 0.9 |  | 2 | 1.1
